# Several values for one entry are separate records, joined by “and”; a condition that tells them apart may be missing. Equal entries are not always repeated. Structures can show the parent of a compound that is named as a salt. Where two headings read alike, the source gives them in different places.
# Key:
# mice = assay: Toxicity (LD50) in mice by the Wilcox method, Comparative test 7; assay type: in vivo
# Method: (§1) The toxicity thresholds of codeine phosphate, of d-glaucine hydrobromide and of d,l-glaucine hydrobromide were determined in mice by the Wilcox method. […] The toxicities of codeine phosphate and d,l-glaucine hydrobromide are about equal.
# [1] = tested on: isolated guinea pig intestine (spasms induced by carbachol); assay: Suppression of spasms induced by carbachol in isolated guinea pig intestine; conditions: Cavia porcellus, read-out: concentration effective against carbachol induced spasms
# Description: In further tests it was investigated in what concentrations the active substances being compared suppress spasms induced in isolated guinea pig intestine by carbachol or histamine. […] On the other hand d,l-glaucine was effective against histamine at molar concentrations of only 4×10^-8 to 4×10^-6 and against carbachol at molar concentrations of only 4×10^-7.
# anti-cough effectiveness = assay: Oral anti-cough effectiveness in guinea pigs, 5% acid aerosol, Comparative test 8; assay type: in vivo; conditions: 1 h before 10 min exposure to 5% acid aerosol, last 5 minutes measured
# coughing centre = assay: Coughing reflex by electrical stimulation of upper laryngeal nerves of anaesthetized cats (method of Domenjoz), Comparative test 5; assay type: in vivo; conditions: intravenous, anaesthetized cats
# Method: In a series of tests conducted by the method of Domenjoz, the effects of the different active substances on the coughing centre was examined by electrical stimulation of the upper laryngeal nerves of anaesthetized cats. Electrical stimulation of the nerve produces a coughing reflex and the intention is to reduce this by intravenous injection of the active substance. The minimal effective dose MED is determined by increasing the dose from 0.1 mg/kg of body weight up to 0.3 mg/kg, 1.0 mg/kg, 3.0 mg/kg and 6.0 mg/kg, until the dose is sufficient for completely suppressing the coughing reflex.
# In these tests each animal was given, on the one hand, codeine and, on the other hand, at sufficient time intervals also glaucine, so that the ratio of the minimal effective doses of glaucine and codeine can be deduced.
# [2] = Toxicity (LD50) in mice by the Wilcox method, Comparative test 7; assay type: in vivo; conditions: mouse, in vivo
# Method: as §1
# [3] = tested on: isolated guinea pig intestines (contractions induced by electric voltages); assay: Suppression of electrically induced contractions in isolated guinea pig intestines, Comparative test 4; parameters: electrically induced contractions (Table III): unit not given here
# Method: In a further series of tests the effects of different doses of codeine phosphate in suppressing contractions induced in isolated guinea pig intestines by electric voltages were tested. For this purpose one electrode was immersed in the solution surrounding the intestinal preparation. The second electrode was connected to the preparation at the attachment point.
# cough pulses [4] = assay: Oral citric acid aerosol cough test in guinea pigs, time course 1-24 h, Comparative test 6; assay type: in vivo; conditions: codeine phosphate 75, d,l-glaucine hydrobromide 150, hydrochloride 135, embonate 378 mg/kg
# Method: In a further comparative test, 40 female guinea pigs with body weights between 230 and 500 g were divided into 4 groups and each animal was again subjected to the action of a 20% citric acid aerosol for 8 minutes. From the control values thus obtained the average control value for each group was calculated. Each animal of each group was then given, by means of a throat probe, either 75 mg/kg of codeine phosphate, or 135 mg/kg of d,l-glaucine hydrochloride, or 150 mg/kg of d,1-glaucine hydrobromide, or 378 mg/kg of d,l-glaucine embonate. These doses are the equimolar quantities, based on glaucine. After a period of 1, or 3, or 5, or 24 hours each animal was again subjected for 8 minutes to the action of the citric acid aerosol, and the number of cough pulses during this period was recorded. The values thus obtained were compared with the control values and the percent deviation of the average measured value for each group, from the average control value, was calculated.
# cough pulses [5] = assay: Citric acid aerosol cough test in guinea pigs, subcutaneous, 30 min (method of Friebel and Reichle), Comparative test 1; assay type: in vivo; conditions: s.c.; for ED50: Cavia porcellus, sc, 0.5 h, 30 min after administering, 20% citric acid aerosol, 8 min
# Method: In order to compare the anti-cough effectiveness of codeine phosphate with the effectiveness of the different isomers of glaucine hydrobromide, the testing method of Friebel and Reichle was used. 60 guinea pigs with weights between 200 and 300 g were divided up into ten groups of different sizes. Before administering the active substance, each animal was subjected, on the same day as the day of test with the active substance, for a period of 8 minutes to an aerosol of 20% citric acid, the animal being confined in a chamber at constant air pressure. During this control test the number of cough pulses was counted with the help of a pressure transmitter. From these measurements an average control value for each group was calculated. After this preliminary control test, there was given subcutaneously to each animal of each group a suspension of the active substance in 1% sodium carboxymethyl cellulose. After 30 minutes each animal was again exposed in the test chamber for 8 minutes to the aerosol of 20% citric acid and the number of cough pressure pulses recorded. The different active substances were administered in increasing doses ranging from 3 mg/kg to 100 mg/kg of body weight. Altogether eight different doses were given. The results were expressed as percent deviation from the average control value for the group on the same day, the deviation being entered in a diagram against the logarithm of the dose administered. From the resulting effectiveness curve, based on the logarithm of the dose, the coefficient of correlation and the ED50 were calculated for each active substance, by the regression analysis method of Downie and Heath (1965). The values obtained for codeine phosphate, for d-glaucine hydrobromide, for d,l-glaucine hydrobromide and for l-glaucine hydrobromide thirty minutes after administering the active substance are summarized in Table I.
# intestinal motility = assay: Intestinal motility / evacuation action of stomach-intestinal tract of mice (carbon suspension), Comparative test 2; assay type: in vivo; conditions: s.c.; for Distance travelled average % (of intestine length): 2 h, control 74.3%, * = significantly different from control (p < 0.05)
# Description: One of the most unpleasant side effects of anti-cough medicine containing codeine is constipation and the occurrence of intestinal spasms. A model test for determining the effects of anti-cough active substances on intestinal motility and on the evacuation action of the stomach-intestinaltract of mice was therefore made. After subcutaneous injection of the active substance, each animal was given, through a throat probe, a 10% suspension of carbon in a 5% aqueous slurry of gum arabic. Two hours later the intestine was sectioned and the distance of stomach coecum measured, and also the distance travelled by the carbon, which was expressed as percent of intestine length.
# The effects of codeine phosphate, of d-glaucine hydrobromide and of l-glaucine hydrobromide on intestinal motility were determined at different doses. For each dose the average value was calculated for a sufficient number of animals.
# cough pulses [6] = assay: Oral citric acid aerosol cough test in guinea pigs, 1 h (equivalent effective doses), Comparative test 6; assay type: in vivo; conditions: for Cough pulses percent of control value: 20% citric acid aerosol 8 min
# [7] = tested on: isolated guinea pig intestines (contractions induced by electric voltages); assay: Suppression of electrically induced contractions in isolated guinea pig intestines, Comparative test 4; conditions: isolated guinea pig intestine; codeine: increased doses; d-glaucine: higher concentrations than 4×10^-5; d,l-glaucine: 4×10^-5 to 6×10^-5
smiles,measurement,setting,value
"COc1cc2c(cc1OC)-c1c(OC)c(OC)cc3c1C(C2)N(C)CC3 (racemic) [d,l-glaucine]","toxicity, comparison in words",mice,considerably less toxic than d-glaucine
same,minimal effective concentration,[1],0.4 µM
"COc1cc2c(cc1OC)-c1c(OC)c(OC)cc3c1[C@@H](C2)N(C)CC3 [1-glaucine-d-tartrate, l-glaucine-d-tartrate]",Oral ED50,anti-cough effectiveness; 60 min,"6,8 mg/kg"
"COc1ccc2c3c1O[C@H]1[C@@H](O)C=C[C@H]4[C@@H](C2)N(C)CC[C@@]341 [codeine phosphate, reference compound]",minimal effective dose,"coughing centre; Felis catus, read-out: MED (minimal effective dose completely suppressing the coughing reflex)",6 mg/kg
same,Duration of cough suppression,coughing centre; at MED,18 to 54 min
same,"toxicity, comparison in words",mice,about equal
same,LD50,"[2]; po, peroral, read-out: LD50 peroral",640 mg/kg
same,LD50,"[2]; sc, subcutaneous, read-out: LD50 subcutaneous",230 mg/kg
same,inhibition at 10 µM,"[3]; Cavia porcellus, molar concentration of about 10^-5, read-out: suppression of electrically induced contraction reflexes",~50%
same,electrically induced contractions (Table III),[3]; molar concentration 1 × 10^-5,49
same,electrically induced contractions (Table III),[3]; molar concentration 2 × 10^-5,36 and 52
same,electrically induced contractions (Table III),[3]; molar concentration 4 × 10^-5,58
same,electrically induced contractions (Table III),[3]; molar concentration 5 × 10^-6,85 and 51
same,"Cough pulses during 8 minutes, percent of control value, after 1 h",cough pulses [4]; 1 h,84%
same,"Cough pulses during 8 minutes, percent of control value, after 3 h",cough pulses [4]; 3 h,70%
same,"Cough pulses during 8 minutes, percent of control value, after 5 h",cough pulses [4]; 5 h,84%
same,"Cough pulses during 8 minutes, percent of control value, after 24 h",cough pulses [4]; 24 h,95%
same,ED50,cough pulses [5],20.6 mg/kg
same,Distance travelled average % (of intestine length),intestinal motility; 3 mg/kg,70.4%
same,Distance travelled average % (of intestine length),intestinal motility; 10 mg/kg,74.3%
same,Distance travelled average % (of intestine length),intestinal motility; 30 mg/kg,34.8%
same,Distance travelled average % (of intestine length),intestinal motility; 100 mg/kg,20.6%
same,Cough pulses percent of control value,cough pulses [6]; 50 mg/kg,37%
same,Cough pulses percent of control value,cough pulses [6]; 100 mg/kg,50%
same,"dose having about the same effect (codeine phosphate vs d,l-glaucine hydrobromide)",cough pulses [6]; guinea pigs,~75 mg per kg of body weight
same,"induced spontaneous activity, in words",[7],the spontaneous activity induced by the codeine phosphate itself increases the contractions
COc1cc2c(cc1OC)-c1c(OC)c(OC)cc3c1[C@@H](C2)N(C)CC3 [l-glaucine hydrobromide],"suppression of electrically induced contraction reflexes, in words",[3]; 4×10^-5,"more effectively suppressed, compared to what is obtained using d-glaucine hydrobomide"
same,"suppression of electrically induced contractions, in words",[3]; 8×10^-5,suppressed even more effectively
same,electrically induced contractions (Table III),"[3]; molar concentration 1 × 10^-5, hydrobromide",71 and 74
same,electrically induced contractions (Table III),"[3]; molar concentration 2 × 10^-5, hydrobromide",64 and 32
same,electrically induced contractions (Table III),"[3]; molar concentration 4 × 10^-5, hydrobromide",24 and 23
same,electrically induced contractions (Table III),[3]; molar concentration 8 × 10^-5,7
same,ED50,cough pulses [5],31.2 mg/kg
same,"ED50 value, comparison in words",cough pulses [5]; 30 min,considerably lower effective dose ED50 value compared to d-glaucine hydrobromide
same,Distance travelled average % (of intestine length),intestinal motility; 3 mg/kg,74.3%
same,"intestinal activity, in words",intestinal motility; 10 mg/kg,significant increase in intestinal activity
same,Distance travelled average % (of intestine length),intestinal motility; 10 mg/kg,94.3%
same,"intestinal motility, in words",intestinal motility; 30 mg/kg and 100 mg/kg,considerably more than the corresponding values for d-glaucine hydrobromide and codeine phosphate
same,Distance travelled average % (of intestine length),intestinal motility; 30 mg/kg,85.4%
same,Distance travelled average % (of intestine length),intestinal motility; 100 mg/kg,51.8%
same,ED50,"anti-cough effectiveness; Cavia porcellus, po, 1 h",7.21 mg/kg

# — patent US4370331A, “L-Glaucine containing composition for cough relief” (Karl O. Helm Aktiengesellschaft, priority 1977, dated 1983)
